# Measured values as given in patent US7998987B2, “Inhibitors of c-Met and uses thereof” (Vertex Pharmaceuticals Incorporated, priority 2005, dated 2011).
# Molecular target: c-Met (Homo sapiens, UniProt P08581)
# Test: Ki determination for the inhibition of c-Met kinase activity (standard coupled enzyme system)
# Type: biochemical
# Details: coupled enzyme system, 200 μM ATP, 80 nM c-Met, 30° C.; read-out: c-Met Ki
# Procedure: Ki Determination for the Inhibition of c-Met
# Reactions were carried out in a solution containing 100 mM HEPES (pH 7.5), 10 mM MgCl2, 25 mM NaCl, 300 μM NADH, 1 mM DTT, and 1.5% DMSO. Final substrate concentrations in the assay were 200 μM ATP (Sigma Chemicals, St Louis, Mo.) and 10 μM polyGluTyr (Sigma Chemical Company, St. Louis). Reactions were carried out at 30° C. and 80 nM c-Met. Final concentrations of the components of the coupled enzyme system were 2.5 mM phosphoenolpyruvate, 300 μM NADH, 30 μg/ml pyruvate kinase and 10 μg/ml lactate dehydrogenase.
# An assay stock buffer solution was prepared containing all of the reagents listed above with the exception of ATP and a test compound of the present invention. […] The reaction was initiated by the addition of 20 μL of ATP (final concentration 200 μM). Rates of reaction were obtained using a Molecular Devices Spectramax plate reader (Sunnyvale, Calif.) over 10 minutes at 30° C. The Ki values were determined from the rate data as a function of inhibitor concentration.
# Sequence of c-Met (P08581 25-1390): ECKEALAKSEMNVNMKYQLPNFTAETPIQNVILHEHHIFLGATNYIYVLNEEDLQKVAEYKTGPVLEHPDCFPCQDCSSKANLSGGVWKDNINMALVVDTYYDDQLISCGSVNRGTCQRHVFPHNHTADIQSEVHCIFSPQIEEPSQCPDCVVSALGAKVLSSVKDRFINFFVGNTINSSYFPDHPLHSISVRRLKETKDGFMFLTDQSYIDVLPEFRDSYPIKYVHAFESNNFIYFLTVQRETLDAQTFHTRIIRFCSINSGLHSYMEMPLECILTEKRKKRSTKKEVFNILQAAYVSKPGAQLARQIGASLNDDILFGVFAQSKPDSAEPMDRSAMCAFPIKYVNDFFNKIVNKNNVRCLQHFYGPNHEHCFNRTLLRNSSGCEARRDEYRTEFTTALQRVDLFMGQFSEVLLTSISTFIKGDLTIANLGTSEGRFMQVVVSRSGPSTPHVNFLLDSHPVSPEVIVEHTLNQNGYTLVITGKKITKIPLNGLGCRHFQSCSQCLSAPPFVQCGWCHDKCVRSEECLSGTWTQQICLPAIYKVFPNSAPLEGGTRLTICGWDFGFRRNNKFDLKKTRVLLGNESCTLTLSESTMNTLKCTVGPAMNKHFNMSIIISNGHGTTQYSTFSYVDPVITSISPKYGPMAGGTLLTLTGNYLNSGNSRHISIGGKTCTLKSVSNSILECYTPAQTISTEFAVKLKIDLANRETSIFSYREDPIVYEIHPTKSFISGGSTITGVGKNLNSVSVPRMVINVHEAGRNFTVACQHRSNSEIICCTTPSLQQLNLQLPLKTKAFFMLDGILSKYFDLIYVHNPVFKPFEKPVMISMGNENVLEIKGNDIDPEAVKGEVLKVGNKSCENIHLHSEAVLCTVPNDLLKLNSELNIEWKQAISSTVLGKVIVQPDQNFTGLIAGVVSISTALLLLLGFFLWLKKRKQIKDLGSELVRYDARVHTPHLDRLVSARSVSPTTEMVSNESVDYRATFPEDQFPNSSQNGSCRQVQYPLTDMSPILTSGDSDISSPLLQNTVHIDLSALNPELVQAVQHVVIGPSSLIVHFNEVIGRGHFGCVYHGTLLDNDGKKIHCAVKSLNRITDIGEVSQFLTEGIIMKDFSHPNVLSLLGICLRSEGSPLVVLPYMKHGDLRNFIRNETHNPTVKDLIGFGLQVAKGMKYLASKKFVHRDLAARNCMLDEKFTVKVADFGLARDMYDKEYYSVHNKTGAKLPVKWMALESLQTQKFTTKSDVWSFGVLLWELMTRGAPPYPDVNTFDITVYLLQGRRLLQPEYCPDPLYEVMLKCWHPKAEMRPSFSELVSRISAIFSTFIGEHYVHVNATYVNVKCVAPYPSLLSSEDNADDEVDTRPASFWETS
row,SMILES,Ki
1,O=[N+]([O-])c1ccc(Cc2nnc3ccc(Nc4cccc(Cl)c4)nn23)cc1 [Compound 475],> 2000 nM
2,Oc1ccc(CCc2nnc3ccc(Nc4cccc(Cl)c4)nn23)cc1 [Compound 366],100 to 2000 nM
3,CCOC(=O)C1=Nn2c(Cc3ccc(O)cc3)nnc2SC1 [Compound 534],100 to 2000 nM
4,Fc1ccc(Nc2ccc3nnc(C4(c5ccc6c(c5)OCO6)CC4)n3n2)cc1Cl [Compound 427],100 to 2000 nM
5,Clc1cccc(Nc2ccc3nnc(COc4ccccn4)n3n2)c1 [Compound 373],> 2000 nM
6,C[C@@H](c1ccc(O)cc1)c1nnc2ccc(Nc3nc4ccc(Cl)cc4s3)nn12 [Compound 483],< 100 nM
7,Clc1cccc(Nc2ccc3nnc(COc4cccc(Cl)n4)n3n2)c1 [Compound 376],> 2000 nM
8,Clc1cccc(Nc2ccc3nnc(COc4c[nH]c5ccccc45)n3n2)c1 [Compound 491],> 2000 nM
9,NC(=O)c1ccc(OCc2nnc3ccc(Nc4cccc(Cl)c4)nn23)cc1 [Compound 470],100 to 2000 nM
10,C[C@@H](c1ccc(O)cc1)c1nnc2ccc(Nc3ccc(Cl)nc3)nn12 [Compound 514],100 to 2000 nM
11,Clc1cccc(Nc2ccc3nnc(COc4cccc(Cl)c4)n3n2)c1 [Compound 384],> 2000 nM
12,Clc1ccc(OCc2nnc3ccc(Nc4cccc(Cl)c4)nn23)cc1 [Compound 380],> 2000 nM
13,O=C(O)Cc1ccc(C2=Nn3c(Cc4ccc(O)cc4)nnc3SC2)s1 [Compound 539],100 to 2000 nM
14,NC(=O)c1ccc(NCc2nnc3ccc(Nc4cccc(Cl)c4)nn23)nc1 [Compound 455],> 2000 nM
15,Oc1cccc(OCc2nnc3ccc(Nc4cccc(Cl)c4)nn23)c1 [Compound 409],100 to 2000 nM
16,C[C@@H](c1ccc(O)cc1)c1nnc2ccc(Nc3ccncn3)nn12 [Compound 498],100 to 2000 nM
17,COc1ccc(Cc2nnc3ccc(Nc4ccc(F)c(Cl)c4)nn23)cc1 [Compound 425],< 100 nM
18,C[C@@H](Nc1ccc2nnc(Cc3ccc(O)cc3)n2n1)c1ccccc1 [Compound 313],100 to 2000 nM
19,C[C@@H](c1ccc(O)cc1)c1nnc2ccc(Nc3nncs3)nn12 [Compound 484],100 to 2000 nM
20,Oc1ccc2c(ccn2Cc2nnc3ccc(Nc4cccc(Cl)c4)nn23)c1 [Compound 435],> 2000 nM
21,CC(=O)Nc1ccc2nnc(Cc3ccc(O)cc3)n2n1 [Compound 396],> 2000 nM
22,Clc1cccc(Nc2ccc3nnc(Cn4ccc5cncnc54)n3n2)c1 [Compound 463],> 2000 nM
23,Oc1ccc(Cc2nnc3ccc(Nc4cc(F)cc(F)c4)nn23)cc1F [Compound 298],< 100 nM
24,COC[C@@H](C)Nc1ccc2nnc(Cc3ccc(O)cc3)n2n1 [Compound 304],100 to 2000 nM
25,Clc1cccc(Nc2ccc3nnc(CCc4ccncc4)n3n2)c1 [Compound 394],> 2000 nM
26,CC1=Nn2c(Cc3ccc(O)cc3)nnc2SC1 [Compound 542],100 to 2000 nM
27,c1csc(C2=Nn3c(Cc4ccncc4)nnc3SC2)c1 [Compound 545],> 2000 nM

# Next, values leading:
row,Ki,SMILES
1,> 2000 nM,Clc1cccc(Nc2ccc3nnc(CNc4cccc5[nH]ccc45)n3n2)c1 [Compound 464]
2,> 2000 nM,CC(C)C(=O)N1CCCC(Nc2ccc3nnc(Cc4ccc(O)cc4)n3n2)C1 (stereo not shown) [Compound 327]
3,> 2000 nM,O=C(Cc1ccccc1)N1CCCC(Nc2ccc3nnc(Cc4ccc(O)cc4)n3n2)C1 (stereo not shown) [Compound 328]
4,> 2000 nM,Clc1cccc(Nc2ccc3nnc(Cc4c[nH]c5ccccc45)n3n2)c1 [Compound 460]
5,100 to 2000 nM,CC[C@@H](CO)Nc1ccc2nnc(Cc3ccc(O)cc3)n2n1 [Compound 308]
6,> 2000 nM,O=C(Nc1ccc2nnc(Cc3ccc(O)cc3)n2n1)C1CCCCC1 [Compound 399]
7,> 2000 nM,Oc1cccc(CCc2nnc3ccc(Nc4cccc(Cl)c4)nn23)c1 [Compound 441]
8,> 2000 nM,Fc1ccc(NCc2nnc3ccc(Nc4cccc(Cl)c4)nn23)c(F)c1 [Compound 344]
9,> 2000 nM,Nc1cccc(Cc2nnc3ccc(Nc4cccc(Cl)c4)nn23)c1 [Compound 317]
10,< 100 nM,Oc1ccc(Cc2nnc3ccc(Nc4cc(Cl)cc(Cl)c4)nn23)cc1 [Compound 294]
11,> 2000 nM,CS(=O)(=O)c1ccc(Cc2nnc3n2N=C(c2ccccc2)CS3)cc1 [Compound 528]
12,< 100 nM,O=c1[nH]ccc2c1ccn2Cc1nnc2ccc(Nc3cccc(Cl)c3)nn12 [Compound 428]
13,> 2000 nM,COc1ccc(Cc2nnc3n2N=C(c2ccccc2)CS3)cc1F [Compound 531]

# Same assay, conditions: coupled enzyme system, 200 μM ATP, 10 μM polyGluTyr, 80 nM c-Met, 30° C.; read-out: c-Met Ki
row,SMILES,Ki
1,COc1ccc(Nc2nn3c(Cc4ccc(O)c(Cl)c4)nnc3s2)cc1 [Compound 39],100 to 2000 nM
2,O=C1CCN(c2ccc3nnc(Cc4ccc(O)cc4)n3n2)CCN1 [Compound 190],100 to 2000 nM
3,OCc1cccc(Nc2ccc3nnc(Cc4ccc5c(c4)OCO5)n3n2)c1 [Compound 263],100 to 2000 nM
4,Oc1ccc(Cc2nnc3ccc(NC4CCCC4)nn23)cc1 [Compound 269],100 to 2000 nM
5,O=C(Nc1ccccc1)Nc1nn2c(Cc3ccc(O)cc3)nnc2s1 [Compound 113],> 2000 nM
6,CC(C)[C@H](C)Nc1ccc2nnc(Cc3ccc(O)cc3)n2n1 [Compound 193],100 to 2000 nM
7,Oc1ccc(Cc2nnc3sc(Nc4ccc(F)cc4)nn23)cc1 [Compound 46],< 100 nM
8,Oc1ccc(Cc2nnc3ccc(NC4CC5CCC4C5)nn23)cc1 (stereo not shown) [Compound 275],< 100 nM
9,Cc1cccc(Nc2ccc3nnc(Cc4ccncc4)n3n2)c1 [Compound 231],> 2000 nM
10,Oc1cccc(CCc2nnc3sc(Nc4cccc(Cl)c4)nn23)c1 [Compound 92],> 2000 nM
11,OC[C@H](Cc1ccccc1)Nc1ccc2nnc(Cc3ccc(O)cc3)n2n1 [Compound 191],> 2000 nM
12,Clc1cccc(Nc2ccc3nnc(Cc4ccncc4)n3n2)c1 [Compound 240],100 to 2000 nM
13,Fc1cccc(Nc2ccc3nnc(Cc4ccc5c(c4)OCO5)n3n2)c1 [Compound 286],< 100 nM
14,COc1ccc(CNc2ccc3nnc(Cc4ccc(O)cc4)n3n2)cc1 [Compound 267],100 to 2000 nM
15,Oc1ccc(Cc2nnc3sc(Nc4cccc(F)c4)nn23)cc1Cl [Compound 97],< 100 nM
16,CC(c1ccc(O)cc1)c1nnc2sc(Nc3ccccc3Cl)nn12 (stereo not shown) [Compound 66],< 100 nM
17,Oc1ccc(Cc2nnc3ccc(NCCCn4ccnc4)nn23)cc1 [Compound 180],100 to 2000 nM
18,c1csc(Cc2nn3c(Cc4ccc5c(c4)OCO5)nnc3s2)c1 [Compound 49],> 2000 nM
19,Oc1ccc(Cc2nnc3ccc(NCc4ccccc4)nn23)cc1 [Compound 277],100 to 2000 nM
20,CNC(=O)c1nn2c(C(C)c3ccc(O)cc3)nnc2s1 (stereo not shown) [Compound 87],> 2000 nM
21,CC1CCC(Nc2ccc3nnc(Cc4ccc(O)cc4)n3n2)CC1 (stereo not shown) [Compound 271],100 to 2000 nM
22,Oc1ccc(CCc2nnc3sc(Nc4cccc(Cl)c4F)nn23)cc1 [Compound 102],100 to 2000 nM
23,COc1cccc(Nc2nn3c(Cc4ccc(O)c(Cl)c4)nnc3s2)c1 [Compound 36],100 to 2000 nM
24,CCc1cccc(Nc2ccc3nnc(Cc4ccncc4)n3n2)c1 [Compound 222],> 2000 nM
25,Oc1cccc(CCc2nnc3sc(Nc4cccc(Cl)c4F)nn23)c1 [Compound 109],100 to 2000 nM

# The next lines start with the values.
row,Ki,SMILES
1,< 100 nM,Oc1ccc(Cc2nnc3ccc(Nc4cccc(F)c4)nn23)cc1Cl [Compound 219]
2,< 100 nM,Cc1ccc(F)cc1Nc1nn2c(Cc3ccc(O)cc3)nnc2s1 [Compound 75]
3,< 100 nM,Fc1cccc(Nc2nn3c(Cc4ccc5c(c4)OCO5)nnc3s2)c1 [Compound 107]
4,100 to 2000 nM,OCCCCNc1ccc2nnc(Cc3ccc(O)cc3)n2n1 [Compound 198]
5,100 to 2000 nM,CN(C)c1ccc(Nc2nn3c(Cc4ccc5c(c4)OCO5)nnc3s2)cc1 [Compound 85]
6,< 100 nM,Oc1ccc(Cc2nnc3sc(Nc4ccc(-n5cccn5)cc4)nn23)cc1 [Compound 71]
7,100 to 2000 nM,COc1ccc(Cc2nnc3ccc(Nc4cccc(C(F)(F)F)c4)nn23)cc1 [Compound 225]
8,< 100 nM,Oc1ccc(Cc2nnc3sc(Nc4cccc(Cl)c4Cl)nn23)cc1 [Compound 45]
9,< 100 nM,CC(c1ccc(O)cc1)c1nnc2sc(Nc3cccnc3)nn12 (stereo not shown) [Compound 82]
10,< 100 nM,C[C@@H](c1ccc(O)cc1)c1nnc2sc(Nc3ccc(Cl)cc3)nn12 [Compound 117]
11,100 to 2000 nM,Oc1ccc(Cc2nnc3ccc(Nc4ccc(Cl)cc4)nn23)cc1 [Compound 186]
12,< 100 nM,COc1cccc(Nc2ccc3nnc(Cc4ccc(O)cc4)n3n2)c1 [Compound 184]
13,> 2000 nM,Oc1ccc(Cc2nnc3sc(Nc4ccc5nsnc5c4)nn23)cc1 [Compound 70]
14,> 2000 nM,CC(c1ccc(O)cc1)c1nnc2sc(C(=O)NC3CC3)nn12 (stereo not shown) [Compound 90]
15,< 100 nM,Oc1ccc(Cc2nnc3ccc(Nc4cccc(Cl)c4)nn23)cc1 [Compound 185]
16,100 to 2000 nM,Fc1c(Cl)cccc1Nc1nn2c(Cc3ccc4c(c3)OCO4)nnc2s1 [Compound 126]
17,> 2000 nM,Oc1ccc(Cc2nnc3ccc(N[C@@H]4C[C@H]4c4ccccc4)nn23)cc1 [Compound 192]
18,> 2000 nM,Oc1ccc(CCc2nnc3sc(Nc4cccc(Cl)c4)nn23)cc1 [Compound 94]
19,100 to 2000 nM,CNC(=O)c1cccc(Nc2ccc3nnc(Cc4ccc(O)c(Cl)c4)n3n2)c1 [Compound 234]
20,100 to 2000 nM,CNC(=O)c1cccc(Nc2ccc3nnc(Cc4ccc(OC)cc4)n3n2)c1 [Compound 235]
